Measured values taken from article PMC3671673, “In Vitro Morphological Assessment of Apoptosis Induced by Antiproliferative Constituents from the Rhizomes of Curcuma zedoaria” (Evidence-based Complementary and Alternative Medicine : eCAM, 2013).
In brackets after ≈: the same amount, converted by molar mass.

Key:
[1] = test system: cervical carcinoma cell line (Ca Ski); experiment: cells; format: cell-based; conditions: Homo sapiens, isolated compounds, 72 h, neutral red, mean ± SD of three replicates, read-out: IC50 (μg/mL) Ca Ski
Experimental: (§1) The human cancer cells KB, Ca Ski, MCF-7, HCT-116, A549, and noncancer human cell lines (MRC-5) were purchased from the American Tissue Culture Collection (ATCC, USA). The supplemented RPMI 1640 media and eagle minimum essential medium (EMEM) were purchased from Sigma-Aldrich, USA. The supplements or antibiotics such as foetal bovine serum (FBS), penicillin/streptomycin (P/S) (100 μg/mL), amphotericin B (50 μg/mL), and accutase were purchased from PAA Laboratories, Austria. Sodium pyruvate (11 mg/mL) purchased from Sigma-Aldrich, USA. The cells were cultured in a SHEL LAB water-jacketed CO2 incubator with […] tissue culture flasks (Nunc, Denmark), which was observed routinely under inverted microscope (Leica DMI3000 B, Germany) for any contamination and seeded into 96-well flat bottom microtiter plate (Nunc, Denmark). The extract or pure compounds was dissolved in dimethyl sulfoxide (DMSO, Molecular Biology Grade, >99.9%) from Sigma-Aldrich, USA. Microtiter plate incubator shaker (LT Biomax 500) was used and absorbance was measured at 540 nm using an ELISA microplate reader (EMax microplate reader of Molecular Devices, USA). MCF-7 and Ca Ski were cultured in RPMI 1640 media supplemented with 10% v/v FBS, P/S, and amphotericin B and MRC-5 in EMEM media with 10% v/v FBS, P/S, amphotericin B, and sodium pyruvate. The cells were cultured in tissue culture flask in 5% CO2 incubator kept at 37°C in a humidified atmosphere and observed routinely under inverted microscope from any contaminations. Each fresh medium was replaced every 2 or 3 days until cell confluence was achieved and the cells were detached by using accutase.
(§2) The in vitro cytotoxicity activity was performed using the neutral red cytotoxicity assay based on the initial protocol as described earlier with some modifications. Briefly, cells were detached from the tissue culture flask with 1.0 mL solution of accutase and PBS solution. The cell pellet was obtained by centrifugation at 1,000 rpm for 5 minutes. The density of the viable cells was counted by 0.4% of trypan blue exclusion in a haemocytometer. Cells were then plated in 96-well microtiter plate (Nunc), at a concentration of 1 × 10^4 cells/well and incubated in a CO2 incubator at 37°C to allow the cells to adhere. After 24 h, the cells were treated with six different concentrations, that is, 1, 10, 25, 50, 75, and 100 μg/mL of each tested agent in three replicates. The plates were incubated for 72 h at 37°C in a 5% CO2 incubator. The untreated cells were regarded as a negative control, whilst cells incubated only with DMSO (0.5%, v/v) were used as a vehicle control. No effect due to the DMSO was observed. Doxorubicin was used as the positive control. After 72 h, the old medium was substituted with fresh medium containing 50 μg/mL neutral red. The 96-well plates were placed into incubator for 3 h. This is to allow the uptake of the vital dye into the lysosomes of viable and undamaged cells. Then, the media was discarded and cells were washed with 200 μL of neutral red washing solution. The dye was eluted from the cells by adding neutral red resorb solution (200 μL). The plate was further incubated for 30 min with rapid agitation on a microtiter plate shaker. The optical density (OD) of the eluted dye was read at 540 nm using a microplate reader. The experiments were conducted in triplicates. The percentage of inhibition of each of the test samples was calculated according to the following formula using the OD values obtained: percentage of inhibition (%) = (OD control − OD sample)/OD control × 100%. The average of three replicates was then obtained. Cytotoxicity of each test agent is expressed as IC50 value. The IC50 value is the concentration of test agents that cause 50% inhibition or cell death, averaged from the three experiments. The IC50 for each extract was extrapolated from the graphs of the percentage inhibition versus concentration of test agents.

[2] = test system: hormone-dependent breast cancer cell line (MCF-7); experiment: cells; format: cell-based; conditions: Homo sapiens, MCF7; isolated compounds, 72 h, neutral red, mean ± SD of three replicates; read-out: IC50 (μg/mL) MCF-7
Experimental: as §1, §2

Row | SMILES | IC50 [1] [µg/mL] | IC50 [2] [µg/mL]
1 | C=C1CCC(C(C)C)=CC2C1CC[C@@]2(C)O (stereo partly shown) [Alismol, alismol] | 8.7 ± 1.1 (≈ 39.5 µM) | 10 ± 0.7 (≈ 45.4 µM)
2 | C=CC1(C)Cc2occ(C)c2C(=O)C1C(=C)C (stereo not shown) [Curzerenone, curzerenone] | 8.9 ± 0.7 (≈ 38.6 µM) | 40 ± 0.5 (≈ 174 µM)
